Results as given in patent US20030134292A1, “Thermostable DNA polymerases and methods of making same” (priority 2001, published 2003).

B1: Taq Δ271, F667Y, E681W: Taq Δ271 F667Y E681W DNA Polymerase, SEQ ID NO: 12, recombinant thermostable DNA polymerase (protein, listed as Thermus aquaticus)
chain: MLERLEFGSLLHEFGLLESPKALEEAPWPPPEGAFVGFVLSRKEPMWADLLALAAARGGRVHRAPEPYKALRDLKEARGLLAKDLSVLALREGLGLPPGDDPMLLAYLLDPSNTTPEGVARRYGGEWTEEAGERAALSERLFANLWGRLEGEERLLWLYREVERPLSAVLAHMEATGVRLDVAYLRALSLEVAEEIARLEAEVFRLAGHPFNLNSRDQLERVLFDELGLPAIGKTEKTGKRSTSAAVLEALREAHPIVEKILQYRELTKLKSTYIDPLPDLIHPRTGRLHTRFNQTATATGRLSSSDPNLQNIPVRTPLGQRIRRAFIAEEGWLLVALDYSQIELRVLAHLSGDENLIRVFQEGRDIHTETASWMFGVPREAVDPLMRRAAKTINYGVLYGMSAHRLSQWLAIPYEEAQAFIERYFQSFPKVRAWIEKTLEEGRRRGYVETLFGRRRYVPDLEARVKSVREAAERMAFNMPVQGTAADLMKLAMVKLFPRLEEMGARML
B2: Taq Δ271, F667Y: Taq Δ271 F667Y DNA Polymerase (Thermo Sequenase), SEQ ID NO: 10, recombinant thermostable DNA polymerase (protein, listed as Thermus aquaticus)
chain: MLERLEFGSLLHEFGLLESPKALEEAPWPPPEGAFVGFVLSRKEPMWADLLALAAARGGRVHRAPEPYKALRDLKEARGLLAKDLSVLALREGLGLPPGDDPMLLAYLLDPSNTTPEGVARRYGGEWTEEAGERAALSERLFANLWGRLEGEERLLWLYREVERPLSAVLAHMEATGVRLDVAYLRALSLEVAEEIARLEAEVFRLAGHPFNLNSRDQLERVLFDELGLPAIGKTEKTGKRSTSAAVLEALREAHPIVEKILQYRELTKLKSTYIDPLPDLIHPRTGRLHTRFNQTATATGRLSSSDPNLQNIPVRTPLGQRIRRAFIAEEGWLLVALDYSQIELRVLAHLSGDENLIRVFQEGRDIHTETASWMFGVPREAVDPLMRRAAKTINYGVLYGMSAHRLSQELAIPYEEAQAFIERYFQSFPKVRAWIEKTLEEGRRRGYVETLFGRRRYVPDLEARVKSVREAAERMAFNMPVQGTAADLMKLAMVKLFPRLEEMGARMLLQVHDELVLEAPKERAEAVARLAKEVMEGVYPLAVPLEVEVGIGEDWLSAKE

How the values were obtained:
Type in all cases: biochemical
[1] = molecular target: T1, Taq Δ271 F667Y E681W (polymerase B) (Thermus aquaticus, UniProt P19821, E681W/F272M/F667Y); assay: DNA polymerase activity assay with detergent or additive, Taq Δ271 F667Y E681W purified without detergent
T1 construct: made in house; host or cells: E. coli
Description: (§1) DNA polymerase activity was measured by running reactions of 50 μL containing 25 mM TAPS (tris-hydroxymethyl-methylaminopropane sulfonic acid) buffer, pH 9.3 (measured at 25° C.), 50 mM KCl, 2 mM MgCl2, 1 mM 2-mercaptoethanol, 0.2 mM each of dGTP, dCTP, dTTP, 0.2 mM [α-^33P]-dATP (0.05-0.1 Ci/mmol) and 0.4 mg/mL activated salmon sperm DNA. The reaction mixture (45 μL) was pre-heated to 74° C. and diluted polymerase (5 μL) added with thorough mixing. After 10 minutes of further incubation at 74° C., the reaction was stopped by the addition of 10 μL of 60 mM EDTA and the entire mixture placed at 0° C. Acid-precipitable radioactivity was determined on an aliquot ([…]) by diluting with 1 ml of 2 mM EDTA containing 0.05 mg/ml salmon sperm DNA and adding 1 mL of 20% (w/v) trichloroacetic acid, 2% (w/v) sodium pyrophosphate (Na4P2O7 10H2O) and incubating on ice for at least 15 minutes. Precipitated DNA was collected by filtering through 2.4 cm GFC filter disks (Schleichter and Schuell) and washed 7 times with 5ml of with 1 N HCl, 0.1 M sodium pyrophosphate. The filter was placed in 3 ml of aqueous scintillation counting fluid and ^33P-specific radioactivity determined by scintillation counting.
(§2) For the assays presented in Tables 5 and 6, the polymerase was diluted 10-5000 fold in a buffer containing 25 mM Tris-HCl pH 8.0, 50 mM KCl, 1 mM 2-mercaptoethanol, and the indicated concentration of detergent or other additive. Where possible, only reactions which incorporated 20- 100 pmol of dAMP in 10 minutes were used for calculation of activity.

[2] = molecular target: T2, Tth Δ273 F668Y (polymerase C) (Thermus thermophilus, UniProt P52028, F274M/F669Y); assay: DNA polymerase activity assay with detergent or additive, Tth Δ273 F668Y purified without detergent
T2 construct: made in house; host or cells: E. coli
Description: as §1, §2

[3] = molecular target: T3, Taq Δ271 F667Y (polymerase A) (Thermus aquaticus, UniProt P19821, F272M/F667Y); assay: DNA polymerase activity assay with detergent or additive, Taq Δ271 F667Y purified without detergent
T3 construct: made in house; host or cells: E. coli
Description: as §1, §2

[4] = system: activated salmon sperm DNA; assay: Specific DNA polymerase activity of enzymes purified and assayed with or without Tween 20 and NP-40
Description: In one embodiment of the present invention, Taq Δ271 F667Y, and Taq Δ271 F667Y E681W were purified with or without detergents NP-40 & Tween-20. The butyl Sepharose chromatography elution profile for polymerase extracted without detergents was essentially identical to the profile for polymerase extracted with Tween 20 and NP-40.
as §1

[5] = additive final concentration 0.01% (w/v)
[6] = additive final concentration 0.1% (w/v)
[7] = additive final concentration 0.05% (w/v)
[8] = detergent in purification: 0.1% Tween 20, 0.1% NP-40, detergent in assay: 0.1% Tween 20, 0.1% NP-40 (reference, 100%)
[9] = detergent in purification: 0.1% Tween 20, 0.1% NP-40, detergent in assay: None
[10] = detergent in purification: None, detergent in assay: 0.1% Tween 20, 0.1% NP-40
[11] = detergent in purification: None, detergent in assay: None, 100% = polymerase purified and assayed using Tween 20 and NP-40

T2 sequence (P52028 274-834 F274M/F669Y): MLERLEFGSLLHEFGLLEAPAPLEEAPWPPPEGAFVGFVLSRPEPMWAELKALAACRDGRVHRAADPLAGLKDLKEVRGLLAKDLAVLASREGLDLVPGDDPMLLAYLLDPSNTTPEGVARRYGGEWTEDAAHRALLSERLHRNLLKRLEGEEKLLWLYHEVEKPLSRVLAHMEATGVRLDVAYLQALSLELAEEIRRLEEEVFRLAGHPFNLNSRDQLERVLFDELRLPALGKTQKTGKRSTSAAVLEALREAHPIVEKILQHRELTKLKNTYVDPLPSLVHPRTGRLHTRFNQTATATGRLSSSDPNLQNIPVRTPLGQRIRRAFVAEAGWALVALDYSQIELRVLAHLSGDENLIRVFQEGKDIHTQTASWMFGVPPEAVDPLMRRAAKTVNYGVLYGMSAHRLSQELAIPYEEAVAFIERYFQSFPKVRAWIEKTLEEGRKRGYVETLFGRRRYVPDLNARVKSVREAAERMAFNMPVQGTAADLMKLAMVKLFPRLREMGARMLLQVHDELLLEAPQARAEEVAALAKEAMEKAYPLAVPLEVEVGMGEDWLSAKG
T1 sequence (P19821 272-832 F272M/F667Y/E681W): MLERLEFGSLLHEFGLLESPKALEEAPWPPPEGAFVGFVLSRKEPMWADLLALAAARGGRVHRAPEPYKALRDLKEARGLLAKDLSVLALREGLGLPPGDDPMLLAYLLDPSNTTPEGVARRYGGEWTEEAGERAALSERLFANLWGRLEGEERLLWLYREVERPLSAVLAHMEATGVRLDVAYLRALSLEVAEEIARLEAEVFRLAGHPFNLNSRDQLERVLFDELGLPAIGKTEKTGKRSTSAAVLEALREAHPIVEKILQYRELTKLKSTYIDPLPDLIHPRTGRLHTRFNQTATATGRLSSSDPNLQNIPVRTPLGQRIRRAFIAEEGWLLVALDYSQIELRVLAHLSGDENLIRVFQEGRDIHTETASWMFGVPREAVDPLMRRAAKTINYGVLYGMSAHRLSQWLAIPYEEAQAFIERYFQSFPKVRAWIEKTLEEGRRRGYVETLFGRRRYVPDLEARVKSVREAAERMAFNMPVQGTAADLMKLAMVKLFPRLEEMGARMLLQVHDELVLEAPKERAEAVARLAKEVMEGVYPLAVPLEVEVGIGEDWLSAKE

Molecule	Taq Δ271 F667Y E681W activity relative to 0.5% each NP-40 and Tween 20 ([1]; additive final concentration 0.001% (w/v) in assay reaction mixture)	Taq Δ271 F667Y E681W activity relative to 0.5% each NP-40 and Tween 20 [1, 5]	Taq Δ271 F667Y E681W activity relative to 0.5% each NP-40 and Tween 20 ([1]; additive final concentration 0.02% (w/v))	Taq Δ271 F667Y E681W activity relative to 0.5% each NP-40 and Tween 20 [1, 6]	Polymerase B Activity (%) ([1]; detergent 0.01% (w/v))	Tth Δ273 F668Y activity relative to 0.5% each NP-40 and Tween 20 [2, 5]	Polymerase C Activity (%) ([2]; detergent 0.01% (w/v))	Taq Δ271 F667Y activity relative to 0.5% each NP-40 and Tween 20 [3, 5]	Polymerase A Activity (%) ([3]; detergent 0.01% (w/v))	Taq Δ271 F667Y E681W activity relative to 0.5% each NP-40 and Tween 20 [1, 7]	Tth Δ273 F668Y activity relative to 0.5% each NP-40 and Tween 20 [2, 7]	Tth Δ273 F668Y activity relative to 0.5% each NP-40 and Tween 20 [2, 6]	Taq Δ271 F667Y activity relative to 0.5% each NP-40 and Tween 20 [3, 7]	Taq Δ271 F667Y activity relative to 0.5% each NP-40 and Tween 20 [3, 6]	Assay (%*) specific activity [4, 8]	Assay (%*) specific activity [4, 9]	Assay (%*) specific activity [4, 10]	Assay (%*) specific activity [4, 11]
CCCCCCCCCCCCO[C@@H]1O[C@H](CO)[C@@H](O[C@H]2O[C@H](CO)[C@@H](O)[C@H](O)[C@H]2O)[C@H](O)[C@H]1O [n-Dodecyl-β-D-Maltoside, n-dodecyl-β-D-maltoside]	+ (Activity 60-70%)	+ + + (Activity > 80% (relative to activity using 0.5% each NP-40 and Tween 20))	+ (Activity 60-70%)	+ (Activity 60-70%)	92.3%	+ + + (Activity > 80% (relative to activity using 0.5% each NP-40 and Tween 20))	80.8%	+ ++	98.8%									
Sodium Deoxycholate		− − − (Activity < 20%)		− − − (Activity < 20%)		− − − (Activity < 20%)		− − − (Activity < 20%)		− − − (Activity < 20%)	− − − (Activity < 20%)	− − − (Activity < 20%)	− − − (Activity < 20%)	− − − (Activity < 20%)				
B1															100%	2%	157%	6%
B2															100%	3%	102%	5%
